Laboratory results published in paper PMC11847841, “The development and evaluation of a tublysine-based antibody-drug conjugate with enhanced tumor therapeutic efficacy” (Frontiers in Pharmacology, 2025).
Where two headings read alike, the source gives them in different places.

Columns and labels:
[1] = test system: BT-474 human breast cancer xenografts; experiment: BT-474 xenograft efficacy study; type: in vivo, BALB/c nude mice; details: BT-474 model, administered alone
tumor cells = experiment: In vitro cytotoxicity of Tub114 and Tub114-cys; type: cell-based; details: at the same concentration as the corresponding ADC; Supplementary Figure S2
Procedure: EC50 values were calculated using the built-in software.

[2] = Single-dose pharmacokinetic study in cynomolgus monkey
[3] = cited from earlier work; for Cmax of free payload: ref Poon et al., 2013
[4] = exceeds total body water content in rats; ref Pharmaceuticals and Medical Devices Agency, 2013; cited from earlier work
[5] = test system: HER2-positive BT-474 cells; experiment: In vitro endocytosis into BT-474 cells; type: cell-based, human
Procedure: (§1) BT-474 and SK-BR-3 cells were cultured to the exponential growth phase, harvested, and washed with pre-cooled PBS. […] Alexa Fluor 488-conjugated goat anti-human IgG (H + L) secondary antibody (10 μg/mL; Invitrogen, Shanghai, China) was subsequently added, and the cells were incubated on ice for 30 min. After additional washes, the cells were resuspended in pre-cooled PBS, divided into five aliquots, and incubated at 37°C for 0, 10, 30, 90, or 120 min. At each time point, cells were further split into two sub-aliquots: one treated with Trypan Blue to quench extracellular fluorescence and the other with PBS as an unquenched control. Fluorescence intensity was measured using a flow cytometer (Guava, Merck Millipore). The percentage of endocytosis was calculated as the ratio of quenched to unquenched fluorescence multiplied by 100%.

[6] = test system: HER2-positive SK-BR-3 cells; experiment: In vitro endocytosis into SK-BR-3 cells; type: cell-based, human
Procedure: as §1

[7] = test system: HER2-negative cell line MDA-MB-468; experiment: In vitro inhibition of proliferation of HER2-negative cells (EZMTT); type: cell-based, human; details: at high concentrations
[8] = Tub114-cys alone 1 mg/kg single administration
[9] = free Tub114-cys in plasma after DX126-262 3 mg/kg single i.v.
[10] = free Tub114-cys in plasma after DX126-262 10 mg/kg single i.v.
[11] = free Tub114-cys in plasma after DX126-262 30 mg/kg single i.v.

For CCC(C)C(NC(=O)C(C)(C)N(C)C)C(=O)N(C)C(CC(OC(C)=O)c1nc(C(=O)NC(Cc2ccc(O)c(NC(=O)CCCNC(=O)C(CCCCNC(=O)COCCOCCOCCOCCOCCOCCOCCOCCOCCOC)NC(=O)CCCN3C(=O)CC(SCC(N)C(=O)O)C3=O)c2)CC(C)C(=O)O)cs1)C(C)C (centres unmarked) [Tub114-cys], the Antitumor effect [1] was “no antitumor effect”, the “Killing of tumor cells by free payload” value (tumor cells) was “neither Tub114 nor Tub114-cys could kill tumor cells at the same concentration as the corresponding ADC” and the “Cmax of free payload” value ([2]; Tub114-cys after 3 mg/kg DX126-262) was 5.5 nM. For the same compound, the “Cmax of free payload” value ([2]; Tub114-cys after 10 mg/kg DX126-262) was 14.6 nM, the “Cmax of free payload” value ([2]; Tub114-cys after 30 mg/kg DX126-262) was 31.7 nM and the AUCinf [2, 8] was 4,501.5 ± 657.9 ng•hr/mL. The CL [2, 8] was 3.772 ± 0.578 mL/min/kg, the Cmax [2, 8] was 4,155.8 ± 464.2 ng/mL and the T1/2 [2, 8] was 1.2 ± 0.2 h. For the same compound, the Vss [2, 8] was 0.2538 ± 0.0307 L/kg, the AUC inf [2, 9] was 519.2 ± 381.9 ng·h/mL and the Cmax [2, 9] was 9.5 ± 1.1 ng/mL. For the same compound, the T1/2 [2, 9] was 51.4 ± 47.1 h, the AUC inf [2, 10] was 966.4 ± 115.4 ng·h/mL and the Cmax [2, 10] was 25.0 ± 5.2 ng/mL. The T1/2 [2, 10] was 26.6 ± 6.6 h, the AUC inf [2, 11] was 2,505.7 ± 419.6 ng•hr/mL and the Cmax [2, 11] was 54.3 ± 5.7 ng/mL. The T1/2 [2, 11] was 28.1 ± 2.7 h.

For CC[C@@]1(O)C(=O)OCc2c1cc1n(c2=O)Cc2c-1nc1cc(F)c(C)c3c1c2[C@@H](NC(=O)CO)CC3 [Dxd], the Vss ([3]; Dxd 1 mg/kg, ref Nagai et al., 2019) is given as 0.832 L/kg.

For COc1cc2cc(c1Cl)N(C)C(=O)C[C@H](OC(=O)[C@H](C)N(C)C(=O)CCS)[C@]1(C)O[C@H]1[C@H](C)[C@@H]1C[C@@](O)(NC(=O)O1)[C@H](OC)/C=C/C=C(\C)C2 [DM1], the “Cmax of free payload” value ([3]; DM1 after 3 mg/kg Kadcyla) is given as 8.0 nM, the “Cmax of free payload” value ([3]; DM1 after 10 mg/kg Kadcyla) is given as 28.2 nM and the “Cmax of free payload” value ([3]; DM1 after 30 mg/kg Kadcyla) is given as 90.2 nM. For the same compound, the Vss [4] was > 0.668 L/kg.

In the case of ado-trastuzumab emtansine [Kadcyla], the “Endocytosis Efficiency” value ([5]; BT-474, incubation time 0 min) is reported as 10.8%, the “Endocytosis Efficiency” value ([5]; BT-474, incubation time 10 min) is reported as 27.3% and the “Endocytosis Efficiency” value ([5]; BT-474, incubation time 30 min) is reported as 34.2%. The “Endocytosis Efficiency” value ([5]; BT-474, incubation time 90 min) was 38.6%, the “Endocytosis Efficiency” value ([5]; BT-474, incubation time 120 min) was 43.8% and the “Endocytosis Efficiency” value ([6]; SK-BR-3, incubation time 0 min) was 9.3%. For the same compound, the “Endocytosis Efficiency” value ([6]; SK-BR-3, incubation time 10 min) was 11.8%, the “Endocytosis Efficiency” value ([6]; SK-BR-3, incubation time 30 min) was 17.4% and the “Endocytosis Efficiency” value ([6]; SK-BR-3, incubation time 90 min) was 31.6%. For the same compound, the “Endocytosis Efficiency” value ([6]; SK-BR-3, incubation time 120 min) was 33.4% and the “Toxicity to HER2-negative cell line MDA-MB-468” value [7] was “some inhibitory effects”.
